In US8877819B2, “Methods for treating heat stress and related compositions” (Georgetown University, priority 2008, dated 2014):

Assays:
Zucker Fatty Rats (ZFR) [1] = test: Survival after accidental heat stress; assay type: in vivo; details: Experiment 1; for survival after heat stress (survivors/group): day 42, 86-89° F. for 5-6 hours
Description: For two experiments, a total of 96 Zucker Fatty Rats (ZFR) (Charles River, Wilmington, Mass.) were used: 48 in each experiment were divided into four groups of 12 rats. Initial body weights ranged between 434 and 624 g in the first experiment and between 388 and 520 g in the second. All rats consumed a regular rat diet in crushed form (Purina Rat Chow, Ralston Purina, St. Louis, Mo.). Sucrose was added to the pulverized regular rat chow (30%, w/w). The four groups comprised a control eating the described diet and three test groups eating the same diet but with the addition of captopril or astaxanthin (two different doses). […] The amount of astaxanthin added was based on 2% (w/w) content of astaxanthin to powder. The first study continued for 57 days while the second continued for 75 days.
On the 42nd day, the temperature of rodent quarters rose from 72° F. to the range of 86-89° F. It was estimated that the rats were exposed to this elevated temperature for 5-6 hours. […] In contrast all ZFR in the Hi Asta group survived (11/11).
On a hot summer day, the air conditioning system in the animal quarters ceased functioning. The internal temperature of the animal quarters rose to a Fahrenheit range in the high 80's. Due to this heat stress, several ZFR that had already undergone almost six weeks of study expired. […] This can be attributed to poor stress handling of ZFR.

MCP-1 = test: Cytokine assay (ELISA), MCP-1; assay type: in vivo, Zucker Fatty Rats; details: Experiment 2
Description: (§1) Various cytokines were measured by ELISA methodology using kits from the following sources: rat MCP-1—Assay Designs Inc., Ann Arbor, Mich.; rat adiponectin—ALPCO Diagnostics, Salem, N.H.; TNF-a, ALPCO Diagnostics, Salem, N.H.; RAT IL-1B—Assay Designs Inc, Ann Arbor, Mich.; RAT IL-6—ALPCO Diagnostics, Salem, N.H.

Zucker Fatty Rats (ZFR) [2] = test: Insulin Challenge Testing (ICT); assay type: in vivo; details: Experiment 1, survivors after heat stress
Description: Testing was commenced after 17-19 hours of food deprivation. For ICT, 0.6 unit of regular insulin/kg BW (Eli Lilly Co., Indianapolis, Ind.) was administered, and blood for glucose determination was obtained from the tail vein at 7.5 min after injection. Glucose was estimated using commercial glucose strips (Lifescan, One Touch Ultra, […], Calif.).

Blood chemistries = assay type: in vivo, Zucker Fatty Rats; details: Experiment 2; for ALP (alkaline phosphatase) / ALT (alanine aminotransferase) / AST (aspartate aminotransferase) / BUN / CO2 / Calcium / Chloride / Cholesterol / Creatinine / Glucose / Potassium / Sodium / Triglycerides: blood at end of study
From the text: Blood for chemical analysis was obtained at the end of the study following removal of food four hours earlier. Blood chemistry values were obtained via dry chemistry procedures using a Johnson and Johnson (Langhorne, Pa.) Vitros® 250 instrument.

IL-1B = test: Cytokine assay (ELISA), IL-1B; assay type: in vivo, Zucker Fatty Rats; details: Experiment 2
Description: as §1

[3] = Hi Asta, astaxanthin 25 mg/kg in feed
[4] = Lo Asta, astaxanthin 5 mg/kg in feed

In the case of `C[C@H](CS)C(=O)N1CCC[C@H]1C(=O)O` [Captopril, reference compound], the “survival percentage after heat stress” value (Zucker Fatty Rats (ZFR) [1]; captopril 30 mg/kg in feed) is reported as 36%, the “survival after heat stress (survivors/group)” value (from here on “survival … (survivors/group)”) (Zucker Fatty Rats (ZFR) [1]; captopril 30 mg/kg in feed) is reported as 4/11 and the MCP-1 (MCP-1; captopril 30 mg/kg in feed) is reported as 81.0 ± 4.1. For the same compound, the “Insulin: decrease in circulating glucose after insulin challenge (ICT)” value (“Insulin: decrease in circulating glucose” for short) (Zucker Fatty Rats (ZFR) [2]; captopril 30 mg/kg in feed) was -9.8 ± 3.5 mg/dL, the ALP (alkaline phosphatase) (Blood chemistries; captopril 30 mg/kg in feed) was 333 ± 22.1 U/L and the “ALT (alanine aminotransferase)” value (Blood chemistries; captopril 30 mg/kg in feed) was 89.4 ± 13.9 units. For the same compound, the “AST (aspartate aminotransferase)” value (Blood chemistries; captopril 30 mg/kg in feed) was 93.0 ± 12.8 units, the BUN (Blood chemistries; captopril 30 mg/kg in feed) was 14.0 ± 0.5 mg/dL and the CO2 (Blood chemistries; captopril 30 mg/kg in feed) was 24.1 ± 0.9 mM. For the same compound, the Calcium (Blood chemistries; captopril 30 mg/kg in feed) was 11.3 ± 0.6 mg/dL, the Chloride (Blood chemistries; captopril 30 mg/kg in feed) was 98.6 ± 1 mM and the Cholesterol (Blood chemistries; captopril 30 mg/kg in feed) was 281.0 ± 15.6 mg/dL. The Creatinine (Blood chemistries; captopril 30 mg/kg in feed) was 0.4 ± 0.02 mg/dL, the Glucose (Blood chemistries; captopril 30 mg/kg in feed) was 327.0 ± 23.0 mg/dL and the Potassium (Blood chemistries; captopril 30 mg/kg in feed) was 6 ± 0.04 mM. For the same compound, the Sodium (Blood chemistries; captopril 30 mg/kg in feed) was 140 ± 0.5 mM, the Triglycerides (Blood chemistries; captopril 30 mg/kg in feed) was 1029.0 ± 73.6 mg/dL and the IL-1β (IL-1B; captopril 30 mg/kg in feed) was 416.0 ± 14.8.

For `CC1=C(/C=C/C(C)=C/C=C/C(C)=C/C=C/C=C(C)/C=C/C=C(C)/C=C/C2=C(C)C(=O)[C@@H](O)CC2(C)C)C(C)(C)C[C@H](O)C1=O` [Asta, astaxanthin], the “survival percentage after heat stress” value (Zucker Fatty Rats (ZFR) [1]; [3]) was 100%, the “survival percentage after heat stress” value (Zucker Fatty Rats (ZFR) [1]; [4]) was 33% and the “survival … (survivors/group)” value (Zucker Fatty Rats (ZFR) [1]; [3]) was 11/11. For the same compound, the “survival … (survivors/group)” value (Zucker Fatty Rats (ZFR) [1]; [4]) was 4/12, the MCP-1 (MCP-1; [3]) was 96.0 ± 4.1 and the MCP-1 (MCP-1; [4]) was 110.0 ± 5.2. For the same compound, the “Insulin: decrease in circulating glucose” value (Zucker Fatty Rats (ZFR) [2]; [3]) was -7.6 ± 2.5 mg/dL, the “Insulin: decrease in circulating glucose” value (Zucker Fatty Rats (ZFR) [2]; [4]) was -8.5 ± 4.1 mg/dL and the “renal damage (elevations in BUN and creatinine concentrations)” value (Blood chemistries; [3]) was “none of the ZFR in the Hi Asta group showed any evidence of elevations”. For the same compound, the “renal damage (increased circulating urea, creatinine and potassium)” value (Blood chemistries; [4]) was “evidence of renal damage occurred in three ZFR”, the ALP (alkaline phosphatase) (Blood chemistries; [3]) was 331 ± 27.3 U/L and the “ALT (alanine aminotransferase)” value (Blood chemistries; [3]) was 86.2 ± 13.7 units. The “AST (aspartate aminotransferase)” value (Blood chemistries; [3]) was 106.1 ± 21.0 units, the BUN (Blood chemistries; [3]) was 15.0 ± 0.5 mg/dL and the CO2 (Blood chemistries; [3]) was 23.5 ± 0.5 mM. It also gave a Calcium (Blood chemistries; [3]) of 11.4 ± 0.1 mg/dL, a Chloride (Blood chemistries; [3]) of 98.9 ± 0.8 mM and a Cholesterol (Blood chemistries; [3]) of 314.0 ± 13.6 mg/dL. For the same compound, the Creatinine (Blood chemistries; [3]) was 0.5 ± 0.01 mg/dL, the Glucose (Blood chemistries; [3]) was 327.0 ± 14.2 mg/dL and the Potassium (Blood chemistries; [3]) was 6 ± 0.13 mM. For the same compound, the Sodium (Blood chemistries; [3]) was 142 ± 0.8 mM, the Triglycerides (Blood chemistries; [3]) was 1172.0 ± 51.2 mg/dL and the ALP (alkaline phosphatase) (Blood chemistries; [4]) was 364 ± 33.4 U/L. For the same compound, the “ALT (alanine aminotransferase)” value (Blood chemistries; [4]) was 70.9 ± 12.4 units, the “AST (aspartate aminotransferase)” value (Blood chemistries; [4]) was 105.8 ± 20.9 units and the BUN (Blood chemistries; [4]) was 25.3 ± 5.4 mg/dL. The CO2 (Blood chemistries; [4]) was 22.5 ± 1 mM, the Calcium (Blood chemistries; [4]) was 11.3 ± 0.2 mg/dL and the Chloride (Blood chemistries; [4]) was 98.4 ± 0.7 mM. For the same compound, the Cholesterol (Blood chemistries; [4]) was 308.0 ± 27.8 mg/dL, the Creatinine (Blood chemistries; [4]) was 0.6 ± 0.90 mg/dL and the Glucose (Blood chemistries; [4]) was 317.0 ± 30.6 mg/dL. For the same compound, the Potassium (Blood chemistries; [4]) was 6.5 ± 0.04 mM, the Sodium (Blood chemistries; [4]) was 141 ± 0.7 mM and the Triglycerides (Blood chemistries; [4]) was 1167.0 ± 71.6 mg/dL. It also gave an IL-1β (IL-1B; [3]) of 440.0 ± 25.5 and an IL-1β (IL-1B; [4]) of 490.0 ± 21.7.
